In patent US6352958B1, “Cycloimido-substituted benzofused heterocyclic herbicides” (FMC Corporation, priority 1997, dated 2002):

Experiments:
Format in all cases: in vivo
[1] = test system: velvetleaf (Abutilon theophrasti); assay: Postemergence herbicidal activity, velvetleaf; conditions: rate of application 0.3 Kg/Ha, rated after 12-17 days
[2] = test system: field corn (Zea mays var. Pioneer 3732); assay: Preemergence herbicidal activity, corn; conditions: Rate of Application 0.3 Kg/Ha, examined after 12-17 days
[3] = test system: Johnsongrass (Sorghum halepense); assay: Preemergence herbicidal activity, johnsongrass; conditions: Rate of Application 0.3 Kg/Ha, examined after 12-17 days
[4] = test system: velvetleaf (Abutilon theophrasti); assay: Preemergence herbicidal activity, velvetleaf; conditions: Rate of Application 0.3 Kg/Ha, examined after 12-17 days
[5] = test system: morningglory (Ipomea lacunosa or Ipomea hederacea); assay: Postemergence herbicidal activity, morningglory; conditions: rate of application 0.3 Kg/Ha, rated after 12-17 days
[6] = test system: common cocklebur (Xanthium strumarium L.); assay: Postemergence herbicidal activity, cocklebur; conditions: rate of application 0.3 Kg/Ha, rated after 12-17 days
[7] = test system: green foxtail (Setaria viridis); assay: Postemergence herbicidal activity, green foxtail; conditions: rate of application 0.3 Kg/Ha, rated after 12-17 days
[8] = test system: soybean (Glycine max var. Winchester); assay: Preemergence herbicidal activity, soybean; conditions: Rate of Application 0.3 Kg/Ha, examined after 12-17 days
[9] = test system: blackgrass (Aloepecurus myosuroides); assay: Preemergence herbicidal activity, blackgrass; conditions: Rate of Application 0.3 Kg/Ha, examined after 12-17 days
[10] = test system: Johnsongrass (Sorghum halepense); assay: Postemergence herbicidal activity, johnsongrass; conditions: rate of application 0.3 Kg/Ha, rated after 12-17 days
[11] = test system: morningglory (Ipomea lacunosa or Ipomea hederacea); assay: Preemergence herbicidal activity, morningglory; conditions: Rate of Application 0.3 Kg/Ha, examined after 12-17 days
[12] = test system: blackgrass (Aloepecurus myosuroides); assay: Postemergence herbicidal activity, blackgrass; conditions: rate of application 0.3 Kg/Ha, rated after 12-17 days
[13] = test system: wheat (Triticum aestivum var. Lew); assay: Preemergence herbicidal activity, wheat; conditions: Rate of Application 0.3 Kg/Ha, examined after 12-17 days
[14] = test system: wheat (Triticum aestivum var. Lew); assay: Postemergence herbicidal activity, wheat; conditions: rate of application 0.3 Kg/Ha, rated after 12-17 days
[15] = test system: green foxtail (Setaria viridis); assay: Preemergence herbicidal activity, green foxtail; conditions: Rate of Application 0.3 Kg/Ha, examined after 12-17 days
[16] = test system: common chickweed (Stellaria media); assay: Postemergence herbicidal activity, chickweed; conditions: rate of application 0.3 Kg/Ha, rated after 12-17 days
[17] = test system: field corn (Zea mays var. Pioneer 3732); assay: Postemergence herbicidal activity, corn; conditions: rate of application 0.3 Kg/Ha, rated after 12-17 days
[18] = test system: common chickweed (Stellaria media); assay: Preemergence herbicidal activity, chickweed; conditions: Rate of Application 0.3 Kg/Ha, examined after 12-17 days
[19] = test system: common cocklebur (Xanthium strumarium L.); assay: Preemergence herbicidal activity, cocklebur; conditions: Rate of Application 0.3 Kg/Ha, examined after 12-17 days
[20] = test system: soybean (Glycine max var. Winchester); assay: Postemergence herbicidal activity, soybean; conditions: rate of application 0.3 Kg/Ha, rated after 12-17 days

SMILES	Postemergence herbicidal activity (% control) ABUTH [1] [%]	PREEMERGENCE HERBICIDAL ACTIVITY (% CONTROL) CRN [2] [%]	PREEMERGENCE HERBICIDAL ACTIVITY (% CONTROL) SORHA [3] [%]	PREEMERGENCE HERBICIDAL ACTIVITY (% CONTROL) ABUTH [4] [%]	Postemergence herbicidal activity (% control) IPOSS [5] [%]	Postemergence herbicidal activity (% control) XANPE [6] [%]	Postemergence herbicidal activity (% control) SETVI [7] [%]	PREEMERGENCE HERBICIDAL ACTIVITY (% CONTROL) SOY [8] [%]	PREEMERGENCE HERBICIDAL ACTIVITY (% CONTROL) ALOMY [9] [%]	Postemergence herbicidal activity (% control) SORHA [10] [%]	PREEMERGENCE HERBICIDAL ACTIVITY (% CONTROL) IPOSS [11] [%]	Postemergence herbicidal activity (% control) ALOMY [12] [%]	PREEMERGENCE HERBICIDAL ACTIVITY (% CONTROL) WHT [13] [%]	Postemergence herbicidal activity (% control) WHT [14] [%]	PREEMERGENCE HERBICIDAL ACTIVITY (% CONTROL) SETVI [15] [%]	Postemergence herbicidal activity (% control) STEME [16] [%]	Postemergence herbicidal activity (% control) CRN [17] [%]	PREEMERGENCE HERBICIDAL ACTIVITY (% CONTROL) STEME [18] [%]	PREEMERGENCE HERBICIDAL ACTIVITY (% CONTROL) XANPE [19] [%]	Postemergence herbicidal activity (% control) SOY [20] [%]
CCOC(=O)c1cc2c(-n3c(=O)cc(C(F)(F)F)n(C)c3=O)c(F)cc(Cl)c2n1C [Compound 522]	100	80	100	100	100	100	100	90	75	100	100	50	40	45	100	100	90	100	50	90
Cn1c(C(F)(F)F)cc(=O)n(-c2c(F)cc(Cl)c3[nH]c(C45CC6CC(CC(C6)C4)C5)nc23)c1=O [Compound 374]	100	10	75	100	95	100	80	30	40	60	95	25	0	25	100	80	30	90	80	80
CCCC(C)c1cc2c(Cl)cc(F)c(-n3c(=O)cc(C(F)(F)F)n(C)c3=O)c2o1 (stereo not drawn) [Compound 229]	100	90	100	100	100	100	100	100	80	100	100	70	70	60	100	100	80	100	95	95
